The record followed here is patent US11518750B2, “3-methylideneoxan-4-one compounds and substituted derivatives thereof as inhibitors of telomerase” (NORTHWESTERN UNIVERSITY, priority 2019, dated 2022).

The structures appear in SMILES notation.

The target in series [1] is T1, telomerase (MCF-7 cell lysates) (Homo sapiens, UniProt O14746).
T1 construct: endogenous in cells; host or cells: MCF-7
The series is described as follows: TRAP assay in cell lysates (PCR-based telomerase activity assay). The class given is biochemical. Particulars: TRAP assay in MCF7 cell lysate in vitro; read-out: IC50. The text has this:
In developing a preliminary structural activity relationship (SAR) for the chrologs, we divided the structure of the pyran into four main components: (1)C-2 substituents (carboxylic acid of chrolactomycin); (2) C-6 substituents (chrolactomycin macrolide loop); (3) C-3 substituents (fused γ-lactone of chrolactomycin) and (4) inclusion of the exocyclic methylene group. We carried out systematic modifications of each structural unit and evaluated the effects on telomerase activity as measured by a PCR-based telomerase activity assay (TRAP assay).^16
Telomeric Repeat Amplification Protocol Assay. The telomeric repeat amplification protocol (TRAP) assay was performed using the TRAPeze RT Telomerase Detection Kit (EMD Millipore) and iTaq DNA polymerase (Bio-Rad) according to the manufacturer's protocol.
Cell Lysate TRAP Analysis. MCF-7, HeLa, ACHN, MDA-MB231 and A549 cells were cultured in DMEM media supplemented with 10% Fetal Bovine Serum (FBS), 1% pen/strep and with 5% CO2 and 37° C. Cells were plated in 2×T75 flasks and cultured for 3 days. Flasks were rinsed twice with PBS and treated with 0.05% trypsin-EDTA (Thermo Fisher) to detach cells. […] Cell extracts were transferred to microcentrifuge tubes, 200 μl/tube, and centrifuged at 12,000×g for 20 min at 4° C. to remove cell debris. Stock solutions of compounds were made in DMSO with a concentration of 100 mM and a […] dilution was performed in DMSO in a 96-well plate to produce compound solutions of 100, 10, 1, 0.1, 0.01, and 0.001 mM (1000× of the final concentration). The 1000× stock solutions of the compound samples were transferred to a 96-well plate using the Echo 550 (Labcyte) and then diluted with the cell extracts to yield final compound concentrations of 100, 10, 1, 0.1, 0.01, and 0.001 μM. The plate was covered and shaken at room temperature for 30 min. For TRAPeze reactions, a “master mix” was prepared according to the TRAPeze protocol, containing 5 μl of the TRAPeze reaction mix; 0.4 μl Taq polymerase; 17.6 μl PCR grade, nuclease-free water. The master mix and treated cell extracts were transferred using the Mosquito Crystal Liquid Handling System (TTP Labtech) into separate wells in a white, 384-well RT-PCR plate. Each well contained 1.2 μl of the master mix and 1.2 μl of the treated cell extract to give a final volume of 2.4 μl, with two duplicates for each sample. The RT-PCR plate was then sealed and centrifuged for 5 min. A sample containing only CHAPS Lysis Buffer was included as negative control. The TSR8 standards were included to generate a standard curve. Samples were amplified in a CFW384 RT-PCR (BioRad) detection system with PCR parameters of 30 min at 30° C. for 1 cycle, 2 min at 95° C. for 1 cycle, and then 45 cycles of 15 s at 94° C., 60 s at 59° C., and 10 s at 45° C. Real-time fluorescent data was obtained during the 10 s at 45° C. step. The number of cycles at which the fluorescence level reached a threshold (Ct) was averaged between the duplicates for each sample. Using a calibration curve obtained from the TSR8 standards, a linear equation was obtained to convert the Ct values into arbitrary telomerase activity units, which were plotted as a function of compound concentration to construct dose-response curves and calculate IC50.

Series [2] concerns tcTERT. Put plainly: Protease digestion and mass spectrometry of treated tcTERT. The format is binding, Tribolium castaneum. To be noted: proteolysis and tandem mass spectrometry. As for the experimental part: Protease Digestion and Mass Spectrometry Analysis. tcTERT (50 μg, ˜600 pmol) was treated with chrolactomycin, NU-1, helenalin, costunolide or DMSO for 1 hr at 37° C. The reaction was diluted with ammonium bicarbonate buffer (pH 8.0), then reduced for 30 min at 56° C. with 10 mM DTT. After cooling to 23° C., the protein was alkylated with 25 mM iodoacetamide for 30 min at 23° C. in the dark, followed by trypsin digestion (2.5 μg, Promega) overnight at 37° C. Digested peptides (˜2 pmol) were injected onto a self-packed precolumn (4 cm POROS10R2) and eluted into the mass spectrometer (LTQ Orbitrap Velos, Thermo Fisher). Peptides were subjected to MS^2 by CAD (electron multiplier detection, relative collision energy 35%, q=0.25).

Series [3] has as its target T2, endogenous telomerase in MCF-7 and A549 cells (Homo sapiens, UniProt O14746).
T2 construct: endogenous in cells; host or cells: MCF-7 and A549
Put plainly: Endogenous telomerase activity after cell treatment (primer extension). The class given is cell-based. Particulars: 10 μM, 24 h. As for the experimental part: For FIG. 4C, the control or treated cells were prepared and collected as pellets of 5×10^6 cells each at NW and pellets were shipped to CMRI on dry ice. Frozen cell pellets were thawed on wet ice and suspended in 1 mL telomerase buffer supplemented with 1 mM PMSF. Endogenous telomerase was immunopurified and assayed as described.

A short description of series [4]: Schiff-base measurement with glycine. The class given is physicochemical. Particulars: incubation with glycine. The method, then:
Schiff-Base Measurement. A 1 mM stock solution of NU-1 in DMSO-d6 was added to a solution of 5 mM solution of glycine in D2O in an NMR tube. The mixture was analyzed by ^1H NMR over 48 hours to analyze formation of Schiff-bases with the ketone of NU-1.

In series [5] the target is T3, CYP1A2 (Homo sapiens, UniProt P05177).
T3 construct: purchased Thermo Fisher
T3 sequence (P05177 1-516): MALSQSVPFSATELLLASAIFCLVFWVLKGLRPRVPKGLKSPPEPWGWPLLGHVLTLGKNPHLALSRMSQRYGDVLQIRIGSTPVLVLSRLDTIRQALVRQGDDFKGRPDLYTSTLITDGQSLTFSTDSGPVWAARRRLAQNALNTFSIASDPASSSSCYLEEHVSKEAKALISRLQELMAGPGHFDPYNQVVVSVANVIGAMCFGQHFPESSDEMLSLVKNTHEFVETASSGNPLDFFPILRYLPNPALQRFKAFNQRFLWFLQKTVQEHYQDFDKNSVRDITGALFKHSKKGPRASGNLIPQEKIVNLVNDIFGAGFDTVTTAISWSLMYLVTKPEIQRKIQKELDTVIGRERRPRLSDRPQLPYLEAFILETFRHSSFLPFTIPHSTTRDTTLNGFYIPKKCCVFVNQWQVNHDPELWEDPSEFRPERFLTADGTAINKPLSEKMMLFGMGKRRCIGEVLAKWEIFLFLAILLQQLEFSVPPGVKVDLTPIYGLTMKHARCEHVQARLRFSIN
Put plainly: CYP450 inhibition assay. The class given is in vitro ADME. To be noted: in words. As for the experimental part:
CYP450 Inhibition Assay. Assay was conducted using the commercially available Vivid CYP1A2 Screening Kit (Thermo Fisher) according to the manufacturer's protocol. α-napthoflavone and DMSO were used as a positive and negative control respectively based on the manufacturer's protocol.

T2 sequence (O14746 whole entry): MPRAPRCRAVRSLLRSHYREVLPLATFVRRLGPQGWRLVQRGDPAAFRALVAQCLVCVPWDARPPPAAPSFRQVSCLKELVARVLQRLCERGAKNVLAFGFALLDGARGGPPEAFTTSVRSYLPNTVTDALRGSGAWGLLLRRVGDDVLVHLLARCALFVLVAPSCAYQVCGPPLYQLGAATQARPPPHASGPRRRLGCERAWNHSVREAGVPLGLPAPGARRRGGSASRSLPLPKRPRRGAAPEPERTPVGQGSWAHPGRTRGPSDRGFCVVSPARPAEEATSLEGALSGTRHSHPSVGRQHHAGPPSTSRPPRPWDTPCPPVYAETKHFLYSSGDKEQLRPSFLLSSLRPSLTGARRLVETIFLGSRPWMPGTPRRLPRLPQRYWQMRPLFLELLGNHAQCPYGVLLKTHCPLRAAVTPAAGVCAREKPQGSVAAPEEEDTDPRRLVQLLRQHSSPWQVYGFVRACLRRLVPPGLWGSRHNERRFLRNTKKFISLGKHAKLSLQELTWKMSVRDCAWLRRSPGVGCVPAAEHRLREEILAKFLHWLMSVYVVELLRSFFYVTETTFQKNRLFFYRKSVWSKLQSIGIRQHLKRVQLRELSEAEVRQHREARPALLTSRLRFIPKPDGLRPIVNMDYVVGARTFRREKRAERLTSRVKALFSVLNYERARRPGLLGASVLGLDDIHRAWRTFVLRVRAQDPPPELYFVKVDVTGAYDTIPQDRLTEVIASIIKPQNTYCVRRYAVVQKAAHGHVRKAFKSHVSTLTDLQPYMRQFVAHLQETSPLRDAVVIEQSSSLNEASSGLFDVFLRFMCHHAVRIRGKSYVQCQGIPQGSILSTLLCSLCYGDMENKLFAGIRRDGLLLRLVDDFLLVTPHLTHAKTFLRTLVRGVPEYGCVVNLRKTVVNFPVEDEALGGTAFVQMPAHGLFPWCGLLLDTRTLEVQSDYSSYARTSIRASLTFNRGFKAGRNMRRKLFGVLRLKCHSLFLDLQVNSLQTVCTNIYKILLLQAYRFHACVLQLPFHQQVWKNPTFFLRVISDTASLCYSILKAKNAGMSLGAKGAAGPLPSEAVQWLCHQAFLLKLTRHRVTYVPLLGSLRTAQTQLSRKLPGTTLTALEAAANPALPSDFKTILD
T2 sequence (O60832 whole entry partner): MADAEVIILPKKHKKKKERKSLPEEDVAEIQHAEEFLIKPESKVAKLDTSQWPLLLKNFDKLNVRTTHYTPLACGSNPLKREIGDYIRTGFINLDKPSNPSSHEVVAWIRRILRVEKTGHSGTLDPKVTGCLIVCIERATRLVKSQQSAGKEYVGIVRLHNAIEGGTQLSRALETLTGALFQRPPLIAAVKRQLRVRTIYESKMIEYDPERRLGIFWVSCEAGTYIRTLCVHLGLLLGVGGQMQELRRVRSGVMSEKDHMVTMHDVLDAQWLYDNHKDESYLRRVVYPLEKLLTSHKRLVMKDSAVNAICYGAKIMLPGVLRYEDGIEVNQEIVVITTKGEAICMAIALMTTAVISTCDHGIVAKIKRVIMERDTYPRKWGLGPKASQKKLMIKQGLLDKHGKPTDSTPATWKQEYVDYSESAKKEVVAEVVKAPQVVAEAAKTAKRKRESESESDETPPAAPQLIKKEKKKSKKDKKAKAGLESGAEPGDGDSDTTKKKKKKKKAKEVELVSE
T2 sequence (Q9NPE3 whole entry partner): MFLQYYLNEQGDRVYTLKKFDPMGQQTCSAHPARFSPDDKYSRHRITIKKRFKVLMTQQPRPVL
T2 sequence (Q9NX24 whole entry partner): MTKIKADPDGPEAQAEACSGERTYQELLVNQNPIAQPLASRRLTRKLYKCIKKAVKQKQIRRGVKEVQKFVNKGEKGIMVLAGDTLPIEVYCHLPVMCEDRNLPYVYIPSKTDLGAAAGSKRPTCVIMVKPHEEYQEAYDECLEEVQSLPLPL
T2 sequence (Q9NY12 whole entry partner): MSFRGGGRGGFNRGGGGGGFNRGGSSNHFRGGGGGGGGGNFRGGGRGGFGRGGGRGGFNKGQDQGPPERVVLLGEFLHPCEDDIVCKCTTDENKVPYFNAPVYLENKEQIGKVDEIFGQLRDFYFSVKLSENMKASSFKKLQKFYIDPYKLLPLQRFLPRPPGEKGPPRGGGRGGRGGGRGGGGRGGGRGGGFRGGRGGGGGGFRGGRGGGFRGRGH
T2 sequence (Q9BUR4 whole entry partner): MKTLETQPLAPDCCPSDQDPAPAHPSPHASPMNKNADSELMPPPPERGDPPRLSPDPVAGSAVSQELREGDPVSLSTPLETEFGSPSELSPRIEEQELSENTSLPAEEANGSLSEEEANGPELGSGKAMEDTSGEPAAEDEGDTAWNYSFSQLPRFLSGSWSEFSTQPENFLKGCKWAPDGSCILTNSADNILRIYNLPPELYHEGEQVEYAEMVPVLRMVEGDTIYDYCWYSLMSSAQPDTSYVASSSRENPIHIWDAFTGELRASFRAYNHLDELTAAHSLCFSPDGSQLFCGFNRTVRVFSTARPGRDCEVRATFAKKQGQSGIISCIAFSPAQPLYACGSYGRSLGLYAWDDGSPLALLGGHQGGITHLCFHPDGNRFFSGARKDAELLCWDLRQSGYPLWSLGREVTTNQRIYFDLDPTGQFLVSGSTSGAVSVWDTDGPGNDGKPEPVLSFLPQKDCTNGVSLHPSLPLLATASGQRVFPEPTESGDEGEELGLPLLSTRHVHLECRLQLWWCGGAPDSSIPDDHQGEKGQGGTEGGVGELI
T1 sequence (O14746 whole entry): as the sequence (O14746 whole entry) above
T1 sequence (O60832 whole entry partner): as the sequence (O60832 whole entry partner) above
T1 sequence (Q9NPE3 whole entry partner): as the sequence (Q9NPE3 whole entry partner) above
T1 sequence (Q9NX24 whole entry partner): as the sequence (Q9NX24 whole entry partner) above
T1 sequence (Q9NY12 whole entry partner): as the sequence (Q9NY12 whole entry partner) above
T1 sequence (Q9BUR4 whole entry partner): as the sequence (Q9BUR4 whole entry partner) above

For `C=C1C(=O)[C@](C)(C(=O)OC)[C@H](CCc2cn(Cc3ccc(F)cc3F)nn2)O[C@@H]1C` [NU-1, methyl (2S,3R,6R)-2-(2-(1-(2,4-difluorobenzyl)-1H-1,2,3-triazol-4-yl)ethyl)-3,6-dimethyl-5 methylene-4-oxotetrahydro-2H-pyran-3-carboxylate], the IC50 in series [1] was 90 nM. Besides, the “adduct formation with tcTERT peptides” value in series [2] is “single modified peptide”. Moreover, the endogenous telomerase activity result in series [3] was “completely eliminated”. The ketone-Schiff base formation entry in series [4] was “no ketone-Schiff base formation”. Further, the CYP450 inhibition profile result in series [5] was “favorable”.

The term IC50 denotes the midpoint of a concentration-inhibition curve.
